Source: PMC12892976, “Alkylation-based optimization of antifungal FPPS inhibitors yields a potent, broad-spectrum lipophilic zoledronate derivative” (mBio, 2025)
Values after ≈ are worked out from the molar mass of the structure shown.

Tests used:
[1] = system: Cryptococcus deneoformans; assay: checkerboard drug interaction (FICI, MICc); assay type: cell-based;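 also: simplified diagonal checkerboard screen pairing antifungals with FPPS inhibitors, FICI calculated under the Loewe additivity model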
Experimental: (§1) Drug interactions between antifungals and FPPS inhibitors were investigated using a simplified checkerboard diagonal screening method ([45]). […] FICIs were determined according to the Loewe additivity model ([17]).

Pichia kudriavzevii [2] = assay: MIC broth microdilution (CLSI); assay type: cell-based; conditions: Pichia kudriavzavii ATCC 6258
Experimental: Antifungal susceptibility was determined by broth microdilution according to the CLSI guidelines described in M27-Ed4 ([16]). […] MFC was determined by back-plating drug-treated cultures from MIC broths onto SDA plates. The MFC was defined as the lowest concentration from which no colonies could be cultured.

Trichophyton soudanense = assay: MIC broth microdilution (CLSI); conditions: Trichophyton soudanense R-167
Experimental: (§2) Antifungal susceptibility was determined by broth microdilution according to the CLSI guidelines described in M27-Ed4 ([16]).

Klebsiella pneumoniae = assay: antibacterial MIC; assay type: cell-based
From the text: […]; Table S3). […]. […] […].

Fusarium solani = assay: MIC broth microdilution (CLSI); conditions: Fusarium solani 04-16-056-1862
Experimental: as §2

Epidermophyton floccosum = assay: MIC broth microdilution (CLSI); assay type: cell-based; conditions: Epidermophyon floccosum R-113
Experimental: as §2

Nannizzia gypsea = assay: MIC broth microdilution (CLSI); assay type: cell-based; conditions: Nannizzia gypsea R-131
Experimental: as §2

Pichia kudriavzevii [3] = assay: checkerboard drug interaction (FICI, MICc); assay type: cell-based;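 also: antifungal plus FPPS inhibitor interactions tested in a simplified diagonal checkerboard screen, with FICI calculated under the Loewe additivity model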
Experimental: as §1

Trichophyton tonsurans = assay: MIC broth microdilution (CLSI); conditions: Trichophyton tonsurans R-168
Experimental: as §2

Paraphyton cookei [4] = assay: MIC broth microdilution (CLSI); assay type: cell-based; conditions: Paraphyton cookei R-639
Experimental: as §2

[5] = system: Trichophyton interdigitale; assay: MIC broth microdilution (CLSI); assay type: cell-based; conditions: Trichophyton interdigitale R-234
Experimental: as §2

Aspergillus lentulus = assay: MIC broth microdilution (CLSI); assay type: cell-based; conditions: Aspergillus lentulus DTO 341-G7
Experimental: as §2

[6] = system: Cryptococcus bacillisporus; assay: checkerboard drug interaction (FICI, MICc); assay type: cell-based;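 also: interaction of antifungals with FPPS inhibitors assessed by a simplified diagonal checkerboard screen, with FICI computed under the Loewe additivity model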
Experimental: as §1

[7] = system: Cryptococcus deneoformans; assay: MIC broth microdilution (CLSI); assay type: cell-based; conditions: Cryptococcus deneoformans JEC21
Experimental: as §2

Aspergillus udagawae = assay: checkerboard drug interaction (FICI, MICc); assay type: cell-based;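 also: simplified diagonal checkerboard screen pairing antifungals with FPPS inhibitors, FICI calculated using the Loewe additivity model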
Experimental: as §1

Rhizopus oryzae = assay: checkerboard drug interaction (FICI, MICc); assay type: cell-based;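 also: simplified diagonal checkerboard screen pairing antifungals with FPPS inhibitors, FICI calculated under the Loewe additivity model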
Experimental: as §1

Aspergillus terreus = assay: checkerboard drug interaction (FICI, MICc); assay type: cell-based;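 also: simplified diagonal checkerboard screen pairing antifungals with FPPS inhibitors, FICI derived by the Loewe additivity model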
Experimental: as §1

[8] = system: 38 species of clinically relevant fungi; assay: MIC summary across 38 species of clinically relevant fungi; assay type: cell-based; conditions: 38 fungal species; read-out: GM MIC
From the text: […]; Table S3). […]. […] […]. […] […].

Cryptococcus tetragattii = assay: MIC broth microdilution (CLSI); assay type: cell-based; conditions: Cryptococcus tetragattii WM779
Experimental: as §2

Fusarium oxysporum = assay: MIC broth microdilution (CLSI); assay type: cell-based; conditions: Fusarium oxysporum 07-200-3012
Experimental: as §2

Paraphyton cookei [9] = assay: checkerboard drug interaction (FICI, MICc);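 also: simplified diagonal checkerboard screen pairing an antifungal with an FPPS inhibitor, FICI computed under the Loewe additivity model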
Experimental: as §1

Aspergillus felis = assay: checkerboard drug interaction (FICI, MICc); assay type: cell-based;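 also: simplified diagonal checkerboard screen pairing antifungals with FPPS inhibitors, FICI calculated under the Loewe additivity model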
Experimental: as §1

Microsporum canis = assay: MIC broth microdilution (CLSI); conditions: Microsporum canis R-232
Experimental: as §2

Candida dubliniensis = assay: checkerboard drug interaction (FICI, MICc); assay type: cell-based;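 also: simplified diagonal checkerboard screen pairing antifungals with FPPS inhibitors, FICI calculated under the Loewe additivity model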
Experimental: as §1

Candida tropicalis = assay: checkerboard drug interaction (FICI, MICc); assay type: cell-based;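 also: simplified diagonal checkerboard screen of antifungal plus FPPS inhibitor combinations, with FICI computed by the Loewe additivity model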
Experimental: as §1

## O=P(O)(O)C(O)(Cn1ccnc1)P(=O)(O)O [ZOL, zoledronate]
[1]; 5FC:ZOL
  FICI: 0.38
[1]; AMB:ZOL
  FICI: 0.63
[1]; CAS:ZOL
  FICI: 1
[1]; FLC:ZOL
  FICI: 0.5
[1]; ITR:ZOL
  FICI: 2.09
[1]; KET:ZOL
  FICI: 0.37
[1]; VOR:ZOL
  FICI: 1.54
[1]; ZOL with 5FC
  bisphosphonate MICc: 16
[1]; ZOL with AMB
  bisphosphonate MICc: 16
[1]; ZOL with CAS
  bisphosphonate MICc: 64
[1]; ZOL with FLC
  bisphosphonate MICc: 32
[1]; ZOL with ITR
  bisphosphonate MICc: 1
[1]; ZOL with KET
  bisphosphonate MICc: 16
[1]; ZOL with VOR
  bisphosphonate MICc: 64
Pichia kudriavzevii [2]
  MIC / MEC: 256 µg/mL (≈ 941 µM)
Trichophyton soudanense
  MIC / MEC: 64 µg/mL (≈ 235 µM)
Klebsiella pneumoniae
  MIC: 256 µg/mL (≈ 941 µM)
Fusarium solani
  MIC / MEC: 256 µg/mL (≈ 941 µM)
Epidermophyton floccosum
  MIC / MEC: 64 µg/mL (≈ 235 µM)
Nannizzia gypsea
  MIC / MEC: 256 µg/mL (≈ 941 µM)
Pichia kudriavzevii [3]; 5FC:ZOL
  FICI: 1.13
Pichia kudriavzevii [3]; AMB:ZOL
  FICI: 0.63
Pichia kudriavzevii [3]; CAS:ZOL
  FICI: 0.56
Pichia kudriavzevii [3]; FLC:ZOL
  FICI: 0.67
Pichia kudriavzevii [3]; ITR:ZOL
  FICI: 0.5
Pichia kudriavzevii [3]; KET:ZOL
  FICI: 0.38
Pichia kudriavzevii [3]; VOR:ZOL
  FICI: 2.25
Pichia kudriavzevii [3]; ZOL with 5FC
  bisphosphonate MICc: 256
Pichia kudriavzevii [3]; ZOL with AMB
  bisphosphonate MICc: 32
Pichia kudriavzevii [3]; ZOL with CAS
  bisphosphonate MICc: 16
Pichia kudriavzevii [3]; ZOL with FLC
  bisphosphonate MICc: 128
Pichia kudriavzevii [3]; ZOL with ITR
  bisphosphonate MICc: 64
Pichia kudriavzevii [3]; ZOL with KET
  bisphosphonate MICc: 64
Pichia kudriavzevii [3]; ZOL with VOR
  bisphosphonate MICc: 64
Trichophyton tonsurans
  MIC / MEC: 128 µg/mL (≈ 470 µM)
Paraphyton cookei [4]
  MIC / MEC: 128 µg/mL (≈ 470 µM)
[5]
  MIC / MEC: 256 µg/mL (≈ 941 µM)
Aspergillus lentulus
  MIC / MEC: >256 µg/mL
[6]; 5FC:ZOL
  FICI: 1.03
[6]; AMB:ZOL
  FICI: 6
[6]; CAS:ZOL
  FICI: 1.13
[6]; FLC:ZOL
  FICI: 0.38
[6]; ITR:ZOL
  FICI: 1.29
[6]; KET:ZOL
  FICI: 1.02
[6]; VOR:ZOL
  FICI: 2.33
[6]; ZOL with 5FC
  bisphosphonate MICc: 128
[6]; ZOL with AMB
  bisphosphonate MICc: 256
[6]; ZOL with CAS
  bisphosphonate MICc: 16
[6]; ZOL with FLC
  bisphosphonate MICc: 32
[6]; ZOL with ITR
  bisphosphonate MICc: 32
[6]; ZOL with KET
  bisphosphonate MICc: 2
[6]; ZOL with VOR
  bisphosphonate MICc: 32
[7]
  MIC / MEC: 128 µg/mL (≈ 470 µM)
Aspergillus udagawae; 5FC:ZOL
  FICI: ≥4
Aspergillus udagawae; AMB:ZOL
  FICI: 0.63
Aspergillus udagawae; CAS:ZOL
  FICI: 2
Aspergillus udagawae; FLC:ZOL
  FICI: 1.01
Aspergillus udagawae; ITR:ZOL
  FICI: 1
Aspergillus udagawae; KET:ZOL
  FICI: 0.75
Aspergillus udagawae; VOR:ZOL
  FICI: 1
Aspergillus udagawae; ZOL with 5FC
  bisphosphonate MICc: 512
Aspergillus udagawae; ZOL with AMB
  bisphosphonate MICc: 128
Aspergillus udagawae; ZOL with CAS
  bisphosphonate MICc: 256
Aspergillus udagawae; ZOL with FLC
  bisphosphonate MICc: 2
Aspergillus udagawae; ZOL with ITR
  bisphosphonate MICc: 128
Aspergillus udagawae; ZOL with KET
  bisphosphonate MICc: 128
Aspergillus udagawae; ZOL with VOR
  bisphosphonate MICc: 128
Rhizopus oryzae; 5FC:ZOL
  FICI: 3
Rhizopus oryzae; AMB:ZOL
  FICI: 1.13
Rhizopus oryzae; CAS:ZOL
  FICI: 0.63
Rhizopus oryzae; FLC:ZOL
  FICI: 1
Rhizopus oryzae; ITR:ZOL
  FICI: 1.02
Rhizopus oryzae; KET:ZOL
  FICI: 0.63
Rhizopus oryzae; VOR:ZOL
  FICI: 0.52
Rhizopus oryzae; ZOL with 5FC
  bisphosphonate MICc: 512
Rhizopus oryzae; ZOL with AMB
  bisphosphonate MICc: 64
Rhizopus oryzae; ZOL with CAS
  bisphosphonate MICc: 256
Rhizopus oryzae; ZOL with FLC
  bisphosphonate MICc: 256
Rhizopus oryzae; ZOL with ITR
  bisphosphonate MICc: 8
Rhizopus oryzae; ZOL with KET
  bisphosphonate MICc: 64
Rhizopus oryzae; ZOL with VOR
  bisphosphonate MICc: 8
Aspergillus terreus; 5FC:ZOL
  FICI: 1.5
Aspergillus terreus; AMB:ZOL
  FICI: 1
Aspergillus terreus; CAS:ZOL
  FICI: 1.5
Aspergillus terreus; FLC:ZOL
  FICI: 0.38
Aspergillus terreus; ITR:ZOL
  FICI: 0.51
Aspergillus terreus; KET:ZOL
  FICI: 0.25
Aspergillus terreus; VOR:ZOL
  FICI: 0.52
Aspergillus terreus; ZOL with 5FC
  bisphosphonate MICc: 128
Aspergillus terreus; ZOL with AMB
  bisphosphonate MICc: 64
Aspergillus terreus; ZOL with CAS
  bisphosphonate MICc: 64
Aspergillus terreus; ZOL with FLC
  bisphosphonate MICc: 32
Aspergillus terreus; ZOL with ITR
  bisphosphonate MICc: 32
Aspergillus terreus; ZOL with KET
  bisphosphonate MICc: 16
Aspergillus terreus; ZOL with VOR
  bisphosphonate MICc: 2
[8]
  MIC: 148 ± 176 µg/mL (≈ 544 µM)
Cryptococcus tetragattii
  MIC / MEC: 64 µg/mL (≈ 235 µM)
Fusarium oxysporum
  MIC / MEC: >256 µg/mL
Paraphyton cookei [9]; 5FC:ZOL
  FICI: ≥4
Paraphyton cookei [9]; AMB:ZOL
  FICI: 0.5
Paraphyton cookei [9]; CAS:ZOL
  FICI: 0.63
Paraphyton cookei [9]; FLC:ZOL
  FICI: 0.63
Paraphyton cookei [9]; ITR:ZOL
  FICI: 0.56
Paraphyton cookei [9]; KET:ZOL
  FICI: 0.56
Paraphyton cookei [9]; VOR:ZOL
  FICI: 0.38
Paraphyton cookei [9]; ZOL with 5FC
  bisphosphonate MICc: 128
Paraphyton cookei [9]; ZOL with AMB
  bisphosphonate MICc: 32
Paraphyton cookei [9]; ZOL with CAS
  bisphosphonate MICc: 16
Paraphyton cookei [9]; ZOL with FLC
  bisphosphonate MICc: 16
Paraphyton cookei [9]; ZOL with ITR
  bisphosphonate MICc: 8
Paraphyton cookei [9]; ZOL with KET
  bisphosphonate MICc: 8
Paraphyton cookei [9]; ZOL with VOR
  bisphosphonate MICc: 16
Aspergillus felis; 5FC:ZOL
  FICI: 1.5
Aspergillus felis; AMB:ZOL
  FICI: 2.5
Aspergillus felis; CAS:ZOL
  FICI: 2.5
Aspergillus felis; FLC:ZOL
  FICI: 1.03
Aspergillus felis; ITR:ZOL
  FICI: 0.52
Aspergillus felis; KET:ZOL
  FICI: 0.63
Aspergillus felis; VOR:ZOL
  FICI: 0.38
Aspergillus felis; ZOL with 5FC
  bisphosphonate MICc: 512
Aspergillus felis; ZOL with AMB
  bisphosphonate MICc: 256
Aspergillus felis; ZOL with CAS
  bisphosphonate MICc: 256
Aspergillus felis; ZOL with FLC
  bisphosphonate MICc: 16
Aspergillus felis; ZOL with ITR
  bisphosphonate MICc: 8
Aspergillus felis; ZOL with KET
  bisphosphonate MICc: 64
Aspergillus felis; ZOL with VOR
  bisphosphonate MICc: 64
Microsporum canis
  MIC / MEC: 64 µg/mL (≈ 235 µM)
Candida dubliniensis; 5FC:ZOL
  FICI: 0.56
Candida dubliniensis; AMB:ZOL
  FICI: 2
Candida dubliniensis; CAS:ZOL
  FICI: 0.2
Candida dubliniensis; FLC:ZOL
  FICI: 0.42
Candida dubliniensis; ITR:ZOL
  FICI: 0.5
Candida dubliniensis; KET:ZOL
  FICI: 0.38
Candida dubliniensis; VOR:ZOL
  FICI: 0.46
Candida dubliniensis; ZOL with 5FC
  bisphosphonate MICc: 0.25
Candida dubliniensis; ZOL with AMB
  bisphosphonate MICc: 4
Candida dubliniensis; ZOL with CAS
  bisphosphonate MICc: 0.125
Candida dubliniensis; ZOL with FLC
  bisphosphonate MICc: 1
Candida dubliniensis; ZOL with ITR
  bisphosphonate MICc: 1
Candida dubliniensis; ZOL with KET
  bisphosphonate MICc: 1
Candida dubliniensis; ZOL with VOR
  bisphosphonate MICc: 1
Candida tropicalis; 5FC:ZOL
  FICI: 0.75
Candida tropicalis; AMB:ZOL
  FICI: 2
Candida tropicalis; CAS:ZOL
  FICI: 0.4
Candida tropicalis; FLC:ZOL
  FICI: 0.31
Candida tropicalis; ITR:ZOL
  FICI: 0.31
Candida tropicalis; KET:ZOL
  FICI: 0.31
Candida tropicalis; VOR:ZOL
  FICI: 0.49
Candida tropicalis; ZOL with 5FC
  bisphosphonate MICc: 64
Candida tropicalis; ZOL with AMB
  bisphosphonate MICc: 128
Candida tropicalis; ZOL with CAS
  bisphosphonate MICc: 8
Candida tropicalis; ZOL with FLC
  bisphosphonate MICc: 32
Candida tropicalis; ZOL with ITR
  bisphosphonate MICc: 16
Candida tropicalis; ZOL with KET
  bisphosphonate MICc: 32
Candida tropicalis; ZOL with VOR
  bisphosphonate MICc: 1
